Calls of active or inactive are those of the source. The rule behind the calls is not given here.
Target: not listed separately
Assay: (§1) Inhibition of NADH oxidase in beef heart submitochondrial particles by end-window spectrophotometry
Parameters: species or system Bos taurus

| Compound | IC50 [nM] |
| --- | --- |
| CCCCCCCCCC[C@H](O)[C@H]1CC[C@H]([C@H]2CC[C@H]([C@H](O)CCCCCCCCCCCCC3C(=O)O[C@@H](C)[C@@H]3O)O2)O1 (stereo partly specified) [LAHERRADURIN] | 0.18 |
| C=C(C)[C@H]1Cc2c(ccc3c2O[C@@H]2COc4cc(OC)c(OC)cc4[C@@H]2C3=O)O1 [ROTENONE] | 5.1 |
| C=C1C[C@@H]2[C@]3(C)C(=C(O)C(=O)[C@@]2(C)[C@]2(C(=O)OC)C(=O)O[C@H](C)C(=O)[C@@]12C)C(C)(C)C(=O)C[C@@H]3O [terretonin E] | 3900 |
| C=C1C[C@@H]2[C@@]3(C)C=CC(=O)C(C)(C)C3=C(O)C(=O)[C@@]2(C)[C@]2(C(=O)OC)C(=O)O[C@H](C)C(=O)[C@@]12C [terretonin F] | 2970 |
| C=CC(C)(C)c1[nH]cnc1/C=C1/NC(=O)[C@H](C(C)C)NC1=O [AURANTIAMINE] | 15100 |

Organism: Bos taurus
Assay: as §1

| Compound | Activity |
| --- | --- |
| O=c1ccn([C@@H]2O[C@H](CO)[C@@H](O)[C@H]2O)c(=O)[nH]1 | inactive |

From ChEMBL document CHEMBL1152444, “Terretonins E and F, inhibitors of the mitochondrial respiratory chain from the marine-derived fungus Aspergillus insuetus (#)” (J Nat Prod, 2009)
